From PMC11475281, “A Novel Liver Cancer-Selective Histone Deacetylase Inhibitor Is Effective against Hepatocellular Carcinoma and Induces Durable Responses with Immunotherapy” (ACS Pharmacology & Translational Science, 2024)

What was measured:
[1] = system: Hep-G2 cells; assay: RNA-seq gene set enrichment analysis (Hallmark and GOBP GSEA); format: cell-based, human; conditions: 24 h
Experimental: To obtain transcriptome level evidence that may shed light on the HCC-selectivity and/or the enhanced potency of the combination of STR-V-53 with anti-PD-1 antibody, we performed RNA sequencing (RNA-seq) analysis on STR-V-53-treated Hep-G2 cells, incubated at IC50 and 2× IC50 for 24 h, relative to the untreated (DMSO) control. We first conducted gene set enrichment analysis (GSEA) using hallmark and gene ontology biological process (GOBP) gene sets to analyze the effect of STR-V-53 vs DMSO-treated control on the Hep-G2 transcriptome.[42],[43] […] Negative enrichment of the G2 M checkpoint pathway supports the finding that STR-V-53 induced S phase arrest in Hep-G2 cells (see Figure 4). […]
(§1) and allowed to grow for 48 hours.
(§2) RCF, with this washing step repeated twice. Next, using RNeasy Plus Mini Kit and Qiagen QIAcube […]
(§3) determined using a DeNovix spectrophotometer. Subsequently, quality control of the RNA samples was […]
(§4) (base call error rate of […]).
(§5) FASTQ files of samples were analyzed through the RNA-seq pipeline provided by the Gryder lab1. Reads were aligned to hg38 using STAR version 2.5.3a, and gene expression was calculated as Transcripts per Million mapped reads (TPM) using RSEM version 1.3.3 and filtered for coding genes. Differentially expressed genes lists were generated for each sample by calculating log2 fold change of the averaged sample TPM versus the averaged DMSO-treated control cells TPM and filtering for genes with |log2 fold change| > -1 and false discovery rate < 0.25. Hallmark2 and gene ontology biological processes (GOBP)3 gene set enrichment analysis (GSEA) was performed on the differentially expressed gene lists using the GSEA software (parameters: Run GSEAPreranked, Collapse/Remap- No_Collapse)4. GSEA results were interpreted and visualized using scripts provided by the Gryder lab1.Volcano plots were generated using DESeq2v1.41.1 and visualized with the ggplot2 R packages5,6. […]

[2] = target: HDAC10 (Homo sapiens, UniProt Q969S8); assay: HDAC isoform inhibition (BPS Bioscience)
[3] = target: HDAC5 (Homo sapiens, UniProt Q9UQL6); assay: HDAC isoform inhibition (BPS Bioscience)
[4] = system: Hep-G2 cells; assay: RNA-seq differential gene expression vs DMSO control; format: cell-based, human
Experimental: To obtain transcriptome level evidence that may shed light on the HCC-selectivity and/or the enhanced potency of the combination of STR-V-53 with anti-PD-1 antibody, we performed RNA sequencing (RNA-seq) analysis on STR-V-53-treated Hep-G2 cells, incubated at IC50 and 2× IC50 for 24 h, relative to the untreated (DMSO) control. We first conducted gene set enrichment analysis (GSEA) using hallmark and gene ontology biological process (GOBP) gene sets to analyze the effect of STR-V-53 vs DMSO-treated control on the Hep-G2 transcriptome.[42],[43] […] Negative enrichment of the G2 M checkpoint pathway supports the finding that STR-V-53 induced S phase arrest in Hep-G2 cells (see Figure 4).
Subsequently, we focused our analysis on specific genes of interest, including gene signatures for HDAC inhibition and immune response pathways. […]
as §1, §2, §3, §4, §5

[5] = target: HDAC3/ NCOR2 (Homo sapiens, UniProt O15379); assay: HDAC isoform inhibition (BPS Bioscience)
Chain of HDAC3/ NCOR2 (O15379 whole entry, canonical isoform): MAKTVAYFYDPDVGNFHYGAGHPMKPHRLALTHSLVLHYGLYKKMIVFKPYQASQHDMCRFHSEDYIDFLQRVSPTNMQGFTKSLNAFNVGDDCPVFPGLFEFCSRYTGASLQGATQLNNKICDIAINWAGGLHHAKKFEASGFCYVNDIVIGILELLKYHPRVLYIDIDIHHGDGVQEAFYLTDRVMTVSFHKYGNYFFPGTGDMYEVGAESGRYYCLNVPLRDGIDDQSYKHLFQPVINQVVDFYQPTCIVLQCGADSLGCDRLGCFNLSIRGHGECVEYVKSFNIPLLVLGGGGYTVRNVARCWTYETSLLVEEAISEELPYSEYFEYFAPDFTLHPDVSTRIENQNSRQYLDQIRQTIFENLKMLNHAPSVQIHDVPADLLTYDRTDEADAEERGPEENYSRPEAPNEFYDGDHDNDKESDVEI
Chain of HDAC3/ NCOR2 (Q9Y618 395-489 partner limits assumed): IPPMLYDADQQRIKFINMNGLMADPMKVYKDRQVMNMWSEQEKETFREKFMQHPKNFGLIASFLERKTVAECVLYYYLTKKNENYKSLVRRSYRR

Chain of HDAC10 (Q969S8 whole entry, canonical isoform): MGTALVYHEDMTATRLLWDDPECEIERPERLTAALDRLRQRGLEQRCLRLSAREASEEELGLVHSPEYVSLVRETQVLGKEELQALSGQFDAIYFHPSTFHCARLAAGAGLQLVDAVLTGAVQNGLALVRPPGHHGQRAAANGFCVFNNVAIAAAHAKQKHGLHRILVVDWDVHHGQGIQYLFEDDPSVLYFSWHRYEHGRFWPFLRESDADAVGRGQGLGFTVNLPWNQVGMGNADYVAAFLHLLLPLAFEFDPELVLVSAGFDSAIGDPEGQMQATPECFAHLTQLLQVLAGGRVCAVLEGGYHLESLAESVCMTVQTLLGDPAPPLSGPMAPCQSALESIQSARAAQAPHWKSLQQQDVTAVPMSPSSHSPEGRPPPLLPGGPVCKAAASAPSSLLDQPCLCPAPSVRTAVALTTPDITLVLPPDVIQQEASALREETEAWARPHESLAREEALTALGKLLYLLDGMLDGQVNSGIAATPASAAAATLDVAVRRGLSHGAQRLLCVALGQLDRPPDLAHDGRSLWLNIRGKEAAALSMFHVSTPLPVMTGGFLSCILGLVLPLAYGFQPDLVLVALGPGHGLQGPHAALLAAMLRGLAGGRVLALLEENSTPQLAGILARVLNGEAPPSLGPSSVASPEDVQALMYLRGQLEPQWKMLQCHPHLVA
Chain of HDAC5 (Q9UQL6 whole entry, canonical isoform): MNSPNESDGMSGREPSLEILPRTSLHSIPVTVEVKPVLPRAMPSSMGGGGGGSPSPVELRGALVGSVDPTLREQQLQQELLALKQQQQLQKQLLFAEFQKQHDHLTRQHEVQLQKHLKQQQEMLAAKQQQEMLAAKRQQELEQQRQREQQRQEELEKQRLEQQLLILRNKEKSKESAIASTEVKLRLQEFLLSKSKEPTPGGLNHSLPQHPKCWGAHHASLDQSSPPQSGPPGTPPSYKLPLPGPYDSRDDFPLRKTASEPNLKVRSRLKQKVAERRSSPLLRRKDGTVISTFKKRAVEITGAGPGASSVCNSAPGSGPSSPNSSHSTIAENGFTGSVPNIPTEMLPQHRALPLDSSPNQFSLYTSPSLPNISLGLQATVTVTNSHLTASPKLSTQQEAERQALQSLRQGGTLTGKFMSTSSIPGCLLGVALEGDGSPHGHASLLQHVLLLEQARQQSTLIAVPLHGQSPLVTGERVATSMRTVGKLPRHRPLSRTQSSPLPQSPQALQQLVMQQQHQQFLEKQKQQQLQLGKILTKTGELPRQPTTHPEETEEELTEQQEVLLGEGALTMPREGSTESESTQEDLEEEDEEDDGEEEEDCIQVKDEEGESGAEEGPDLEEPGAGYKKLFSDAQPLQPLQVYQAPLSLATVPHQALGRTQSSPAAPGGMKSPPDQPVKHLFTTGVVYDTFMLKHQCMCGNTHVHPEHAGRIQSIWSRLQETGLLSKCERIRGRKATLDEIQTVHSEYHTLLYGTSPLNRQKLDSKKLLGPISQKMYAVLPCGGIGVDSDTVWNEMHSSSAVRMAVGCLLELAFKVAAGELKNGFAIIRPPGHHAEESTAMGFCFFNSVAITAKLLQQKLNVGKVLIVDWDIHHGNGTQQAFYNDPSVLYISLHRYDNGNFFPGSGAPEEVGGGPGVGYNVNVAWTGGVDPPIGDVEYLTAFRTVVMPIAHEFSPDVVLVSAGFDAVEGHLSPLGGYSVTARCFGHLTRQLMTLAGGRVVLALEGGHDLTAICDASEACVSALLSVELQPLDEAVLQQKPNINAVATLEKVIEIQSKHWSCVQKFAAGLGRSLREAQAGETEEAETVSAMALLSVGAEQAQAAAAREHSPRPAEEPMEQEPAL

`O=C(CCCCCCn1cc(-c2ccc(O[C@H]3O[C@H](CO)[C@@H](O)[C@H](O)[C@H]3O)cc2)nn1)NO` [STR-V-53] was tested, and the “NES, G2/M checkpoint (Hallmark GSEA)” value ([1]; 2× IC50 (20 μM)) was −2.2, the “NES, MYC targets v1 (Hallmark GSEA)” value ([1]; 2× IC50 (20 μM)) was −2.3 and the “NES, MYC targets v2 (Hallmark GSEA)” value ([1]; 2× IC50 (20 μM)) was −2.6. The “NES, PI3K/Akt/mTOR signaling (Hallmark GSEA)” value ([1]; 2× IC50 (20 μM)) was −1.7, the “NES, antimicrobial humoral immune response mediated by an antimicrobial peptide (GOBP GSEA)” value ([1]; 2× IC50 (20 μM)) was 1.9 and the “NES, cytokine-mediated signaling pathway (GOBP GSEA)” value ([1]; 2× IC50 (20 μM)) was −1.4. The “NES, glucose-regulated transcription genes (GOBP GSEA)” value ([1]; 2× IC50 (20 μM)) was −1.8, the “NES, humoral immune response (GOBP GSEA)” value ([1]; 2× IC50 (20 μM)) was 1.7 and the “NES, innate immune response in the mucosa (GOBP GSEA)” value ([1]; 2× IC50 (20 μM)) was 2.3. For the same compound, the “NES, p53 pathway (Hallmark GSEA)” value ([1]; 2× IC50 (20 μM)) was 1.6, the “NES, positive regulation of glucose import (GOBP GSEA)” value ([1]; 2× IC50 (20 μM)) was −1.6 and the “NES, G2/M checkpoint (Hallmark GSEA)” value ([1]; IC50 (10 μM)) was −2.9. The “NES, MYC targets v1 (Hallmark GSEA)” value ([1]; IC50 (10 μM)) was −2.6, the “NES, MYC targets v2 (Hallmark GSEA)” value ([1]; IC50 (10 μM)) was −2.3 and the “NES, antimicrobial humoral immune response mediated by an antimicrobial peptide (GOBP GSEA)” value ([1]; IC50 (10 μM)) was 1.9. For the same compound, the “NES, glucose-regulated transcription genes (GOBP GSEA)” value ([1]; IC50 (10 μM)) was −1.8, the “NES, humoral immune response (GOBP GSEA)” value ([1]; IC50 (10 μM)) was 1.9 and the “NES, innate immune response in the mucosa (GOBP GSEA)” value ([1]; IC50 (10 μM)) was 2.1. The IC50 [2] was 54 nM, the IC50 [3] was 7000 nM and the “ANP32B log2 fold change” value ([4]; 2× IC50 (20 μM), 24 h) was −2.3. For the same compound, the “CCL16 log2 fold change” value ([4]; 2× IC50 (20 μM), 24 h) was −1.8, the “CCL20 log2 fold change” value ([4]; 2× IC50 (20 μM), 24 h) was 0.9 and the “CCL25 log2 fold change” value ([4]; 2× IC50 (20 μM), 24 h) was 1.2. For the same compound, the “CCL26 log2 fold change” value ([4]; 2× IC50 (20 μM), 24 h) was 2.9, the “CDKN1A (p21) log2 fold change” value ([4]; 2× IC50 (20 μM), 24 h) was 3.3 and the “CX3CL1 log2 fold change” value ([4]; 2× IC50 (20 μM), 24 h) was −1.7. For the same compound, the “CXCL8 log2 fold change” value ([4]; 2× IC50 (20 μM), 24 h) was −2.0, the “CXCL11 log2 fold change” value ([4]; 2× IC50 (20 μM), 24 h) was 1.3 and the “DKK-1 log2 fold change” value ([4]; 2× IC50 (20 μM), 24 h) was 6.2. For the same compound, the “MT1X log2 fold change” value ([4]; 2× IC50 (20 μM), 24 h) was 3.4, the “PDCD1 log2 fold change” value ([4]; 2× IC50 (20 μM), 24 h) was 3.0 and the “TUBA1A log2 fold change” value ([4]; 2× IC50 (20 μM), 24 h) was 5.4. For the same compound, the “TYMS log2 fold change” value ([4]; 2× IC50 (20 μM), 24 h) was −3.6, the “Expression of MHC (HLA) complex, CD8+, and PD-1 (PDCD1) /PD-L1 (CD274) genes” value ([4]; Hep-G2, RNA-seq, 24 h) was “upregulates” and the “Expression of GLUTs 1, 2, 9, and 14” value ([4]; Hep-G2, within 24 h of uptake) was “downregulation”. The “Expression of GLUTs 3, 4, 6, and 12” value ([4]; Hep-G2, within 24 h of uptake) was “upregulation”, the “ANP32B log2 fold change” value ([4]; IC50 (10 μM), 24 h) was −1.8 and the “CCL16 log2 fold change” value ([4]; IC50 (10 μM), 24 h) was −1.0. For the same compound, the “CCL20 log2 fold change” value ([4]; IC50 (10 μM), 24 h) was 1.9, the “CCL25 log2 fold change” value ([4]; IC50 (10 μM), 24 h) was 0.9 and the “CCL26 log2 fold change” value ([4]; IC50 (10 μM), 24 h) was 2.1. For the same compound, the “CDKN1A (p21) log2 fold change” value ([4]; IC50 (10 μM), 24 h) was 3.1, the “CX3CL1 log2 fold change” value ([4]; IC50 (10 μM), 24 h) was −1.5 and the “CXCL8 log2 fold change” value ([4]; IC50 (10 μM), 24 h) was −1.6. For the same compound, the “CXCL11 log2 fold change” value ([4]; IC50 (10 μM), 24 h) was 1.1, the “DKK-1 log2 fold change” value ([4]; IC50 (10 μM), 24 h) was 6.5 and the “MT1X log2 fold change” value ([4]; IC50 (10 μM), 24 h) was 2.9. For the same compound, the “PDCD1 log2 fold change” value ([4]; IC50 (10 μM), 24 h) was 2.1, the “TUBA1A log2 fold change” value ([4]; IC50 (10 μM), 24 h) was 4.7 and the “TYMS log2 fold change” value ([4]; IC50 (10 μM), 24 h) was −3.2. The IC50 [5] was 21 nM.
